Assay results published in ChEMBL document CHEMBL1221246, “Structure-activity studies on acetylcholinesterase inhibition in the lycorine series of Amaryllidaceae alkaloids” (Bioorg Med Chem Lett, 2010).

Columns and labels:
Acetylcholinesterase [1] = target: T1, Acetylcholinesterase (Homo sapiens, UniProt P22303); assay: Inhibition of AChE by Ellman's assay
Acetylcholinesterase [2] = target: T1, Acetylcholinesterase; assay: Inhibition of AChE at 10 uM by Ellman's assay

T1 sequence (P22303 whole entry): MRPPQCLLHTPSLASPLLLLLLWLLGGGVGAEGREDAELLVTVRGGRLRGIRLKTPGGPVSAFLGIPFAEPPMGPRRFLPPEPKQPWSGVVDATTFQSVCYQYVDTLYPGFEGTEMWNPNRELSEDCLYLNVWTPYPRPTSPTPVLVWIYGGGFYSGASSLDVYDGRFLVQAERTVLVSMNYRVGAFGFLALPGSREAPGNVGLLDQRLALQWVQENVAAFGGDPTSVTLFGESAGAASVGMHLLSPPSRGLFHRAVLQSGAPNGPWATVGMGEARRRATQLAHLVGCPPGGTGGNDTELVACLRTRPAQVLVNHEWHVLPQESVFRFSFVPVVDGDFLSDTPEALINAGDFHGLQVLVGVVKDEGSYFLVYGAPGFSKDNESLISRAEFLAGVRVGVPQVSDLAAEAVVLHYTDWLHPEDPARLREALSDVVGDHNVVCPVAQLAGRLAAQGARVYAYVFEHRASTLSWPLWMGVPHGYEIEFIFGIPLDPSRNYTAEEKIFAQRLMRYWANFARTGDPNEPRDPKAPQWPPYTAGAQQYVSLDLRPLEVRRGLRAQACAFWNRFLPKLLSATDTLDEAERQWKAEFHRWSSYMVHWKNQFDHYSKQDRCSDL

SMILES | Ki (Acetylcholinesterase [1]) | Ki (Acetylcholinesterase [2])
CC(C)(C)[Si](C)(C)O[C@H]1C=C2CCN3Cc4cc5c(cc4[C@H]([C@@H]1OC(=O)c1ccccc1)[C@@H]23)OCO5 | 0.39 µM | 
O=C(O[C@H]1[C@H]2c3cc4c(cc3CN3CCC(=C[C@@H]1O)[C@H]23)OCO4)c1ccccc1 | 0.54 µM | 
CC(=O)O[C@H]1C=C2CCN3Cc4cc5c(cc4[C@H]([C@@H]1OC(=O)c1ccccc1)[C@@H]23)OCO5 | 0.97 µM | 
CC(=O)O[C@H]1[C@H]2c3cc4c(cc3CN3CCC(=C[C@@H]1O)[C@H]23)OCO4 | 0.43 µM | 
CC(=O)O[C@H]1[C@H]2c3cc4c(cc3CN3CCC(=C[C@@H]1OC(C)=O)[C@H]23)OCO4 |  | Not Active
CO[C@H]1C=C[C@@]23c4cc5c(cc4CN(C[C@@H]2O)[C@H]3C1)OCO5 |  | Not Active
CC(C)(C)[Si](C)(C)O[C@H]1C=C2CCN3Cc4cc5c(cc4[C@H]([C@@H]1O)[C@@H]23)OCO5 | 0.86 µM | 
CC(=O)O[C@H]1[C@H]2c3cc4c(cc3CN3CCC(=C[C@@H]1O[Si](C)(C)C(C)(C)C)[C@H]23)OCO4 | 0.34 µM | 
O[C@H]1C=C[C@@]23CCN(Cc4cc5c(cc42)OCO5)[C@@H]3C1 [CRININE] |  | Not Active
COc1cc2c(cc1OC)[C@H]1[C@H]3C(=CC[C@H]1OC2=O)CCN3C [HOMOLYCORINE] |  | Not Active
O[C@H]1[C@H]2c3cc4c(cc3CN3CCC(=C[C@@H]1O)[C@H]23)OCO4 [LYCORINE] |  | Not Active
CO[C@H]1C=C2[C@H]3CN(Cc4cc5c(cc43)OCO5)[C@H]2C[C@@H]1O [MONTANINE] |  | Not Active
COc1cc2c(cc1O)[C@@H]1[C@H](O)[C@@H](O)C=C3CCN(C2)[C@H]31 [PSEUDOLYCORINE] |  | Not Active
CO[C@@H]1C=C[C@@]23c4cc5c(cc4CO[C@]2(O)CN(C)[C@H]3C1)OCO5 [TAZETTINE] |  | Not Active
